# In patent US12064445B2, “Cytarabine conjugates for cancer therapy” (Biosight Ltd., priority 2015, dated 2024):
# Like-named read-outs stand apart in the source and are kept apart here.
# Tests used:
# [1] = system: A2780 (Human ovarian carcinoma); assay: MTT assay, IC50 in tumor cell lines; format: cell-based; conditions: A2780, 72 hr
# Method: (§1) The effect of Astarabine® on different cell lines was evaluated. Briefly, various cell lines were obtained from ATCC or ECACC. Hematological cells were grown in RPMI medium containing 10-20% FBS and 1% glutamine. Solid tumor cells were grown in DMEM medium containing 10-20% FBS and 1% glutamine. Cells were seeded into 96-well plates, 50,000 cells/ml, 0.2 ml per well. Test substances were diluted in saline or PBS and added in final concentrations of 0.1 nM to 10 μM, in a volume of 20 μl. The study was conducted in triplicates, PBS was used as control. Plates were incubated for 72 hr at 37° C., 5% CO2. At the end of the exposure period, a MTT assay using the MTT reagent [3-(4,5-dimethylthiazol-2-yl)-2,5-diphenyltetrazolium bromide] was performed. MTT was added to each well at a concentration of 5 mg/ml in a volume of 0.02 ml. Plates were incubated at 37° C. for 3 h. The plates were centrifuged at 3500 rpm for 5 minutes and the supernatant was aspired. The pellets which contained MTT crystals were each dissolved in 0.2 ml DMSO. Absorbance was determined using ELISA reader at a wavelength of 570 nm.
# [2] = system: CCRF-CEM (Human acute lymphoblastic leukemia T lympoblastoid line); assay: MTT assay, IC50 in tumor cell lines; format: cell-based; conditions: 72 hr
# Method: as §1
# [3] = system: CCRF-SB (Human acute lymphoblastic leukemia); assay: MTT assay, IC50 in tumor cell lines; format: cell-based; conditions: 72 hr
# Method: as §1
# [4] = system: HL-60 (Human promyelocytic leukemia); assay: MTT assay, IC50 in tumor cell lines; format: cell-based; conditions: HL-60, 72 hr
# Method: as §1
# [5] = system: HepG2 (Human hepatocellular carcinoma); assay: MTT assay, IC50 in tumor cell lines; format: cell-based; conditions: HepG2, 72 hr
# Method: as §1
# [6] = system: K562 (Human chronic myelogenous leukemia); assay: MTT assay, IC50 in tumor cell lines; format: cell-based; conditions: K562, 72 hr
# Method: as §1
# [7] = system: L1210 (Mouse DBA/2 lymphocytic leukemia); assay: MTT assay, IC50 in tumor cell lines; format: cell-based; conditions: L1210, 72 hr
# Method: as §1
# [8] = system: MEG 01 (Human chronic myelogenous leukemia); assay: MTT assay, IC50 in tumor cell lines; format: cell-based; conditions: MEG 01, 72 hr
# Method: as §1
# [9] = system: Molt-4 (Human acute lymphoblastic leukemia); assay: MTT assay, IC50 in tumor cell lines; format: cell-based; conditions: Molt-4, 72 hr
# Method: as §1
# [10] = system: NCIH727 (Human lung non small cell carcinoma); assay: MTT assay, IC50 in tumor cell lines; format: cell-based; conditions: NCI-H727, NCIH727, 72 hr
# Method: as §1
# [11] = system: P388.D1 (Mouse lymphoid macrophage); assay: MTT assay, IC50 in tumor cell lines; format: cell-based; conditions: P388D1, P388.D1, 72 hr
# Method: as §1
# [12] = system: RS 4:11 (Human acute lymphoblastic leukemia); assay: MTT assay, IC50 in tumor cell lines; format: cell-based; conditions: RS4-11, RS 4:11, 72 hr
# Method: as §1
# [13] = system: SU DHL-1 (Human large cell lymphoma); assay: MTT assay, IC50 in tumor cell lines; format: cell-based; conditions: SU DHL-1, 72 hr
# Method: as §1
# [14] = system: SU DHL-5 (Human B-cell non Hodgkin's lymphoma); assay: MTT assay, IC50 in tumor cell lines; format: cell-based; conditions: SU DHL-5, 72 hr
# Method: as §1
# [15] = system: THP-1 (Human monocytic leukemia); assay: MTT assay, IC50 in tumor cell lines; format: cell-based; conditions: THP-1, 72 hr
# Method: as §1
# RPMI8226 (Human myeloma) = assay: MTT assay, IC50 in tumor cell lines; format: cell-based; conditions: RPMI-8226, RPMI8226, 72 hr
# Method: as §1, with “Test substances were diluted in saline or PBS and added in final concentrations of 0.1 nM to 10 μM, in a volume of 20 μl.” left out
# Molt-4 cells = assay: Human leukemia hollow fiber model transplanted in nude mice (Molt-4); format: in vivo; conditions: 1.5 mg/mouse/day, 7 consecutive days
# Method: (§2) Next, the efficacy of Astarabine® in vivo was studied on a human leukemia (Molt-4 and CCRF-CEM cells) hollow fiber model transplanted in nude mice. Astarabine® was injected at doses of 6.25 mg/mouse/day and 25 mg/mouse/day intraperitoneally (IP), daily, for 7 consecutive days; cytarabine was injected at a dose of 1.5 mg/mouse/day. Leukemia cell growth was measured using the MTT assay as described in Example 1 herein above.
# CCRF-CEM cells = assay: Human leukemia hollow fiber model transplanted in nude mice (CCRF-CEM); format: in vivo; conditions: 1.5 mg/mouse/day, 7 consecutive days
# Method: as §2
# [16] = system: Molt-4 (Human acute lymphoblastic leukemia); conditions: Ogbomo et al., Neoplasia 2008, read-out: Cytarabine in literature (IC50); cited from earlier work
# [17] = system: HL-60 (Human promyelocytic leukemia); conditions: Qin et al., Clin. Cancer Res. 2007, read-out: Cytarabine in literature (IC50); cited from earlier work
# [18] = system: CCRF-SB (Human acute lymphoblastic leukemia); conditions: Manfredini et al., Bioorg. Med. Chem. 2000, read-out: Cytarabine in literature (IC50); cited from earlier work
# [19] = system: CCRF-CEM (Human acute lymphoblastic leukemia T lympoblastoid line); conditions: Manfredini et al., Bioorg. Med. Chem. 2000, read-out: Cytarabine in literature (IC50); cited from earlier work
# [20] = system: L1210 (Mouse DBA/2 lymphocytic leukemia); conditions: Breistol et al., Cancer Res. 1999, read-out: Cytarabine in literature (IC50); cited from earlier work
# [21] = system: HepG2 (Human hepatocellular carcinoma); conditions: Grove et al., Cancer Res. 1995, read-out: Cytarabine in literature (IC50); cited from earlier work
# [22] = system: A2780 (Human ovarian carcinoma); conditions: Ruiz Van Haperen, Cancer Res. 1994, read-out: Cytarabine in literature (IC50); cited from earlier work
compound,measurement,setting,value
"Nc1ccn([C@@H]2O[C@H](CO)[C@@H](O)[C@@H]2O)c(=O)n1 [cytarabine, cytosine arabinoside]",IC50,[1],0.072 to 0.114 µM
same,IC50,[2],0.0031 to 0.0252 µM
same,IC50,[3],1.9 to 3.1 µM
same,IC50,[4],0.0496 to 0.165 µM
same,IC50,[5],0.98 to 1.16 µM
same,IC50,[6],0.0461 to 0.381 µM
same,IC50,[7],0.0122 to 0.0164 µM
same,IC50,[8],1.2 to 5.6 µM
same,IC50,[9],0.0011 to 0.0123 µM
same,IC50,[10],0.59 to 0.77 µM
same,IC50,[11],0.6 to 0.9 µM
same,IC50,[12],0.0264 µM
same,IC50,[13],0.124 to 0.524 µM
same,IC50,[14],0.323 µM
same,IC50,[15],2.3 to 5.5 µM
same,IC50,RPMI8226 (Human myeloma),9.7 to 63 µM
same,Inhibition of growth of Molt-4 cells,Molt-4 cells,81.1%
same,Inhibition of growth of CCRF-CEM cells,CCRF-CEM cells,73.3%
same,IC50,[16],0.029 ± 0.0018 µM
same,IC50,[17],0.037 ± 0.0061 µM
same,IC50,[18],4.2 µM
same,IC50,[19],0.03 µM
same,IC50,[20],0.04 ± 0.009 µM
same,IC50,[21],0.185 ± 0.24 µM
same,IC50,[22],0.014 ± 0.004 µM
